From patent publication US20220249454A1, “INHIBITORS OF MONOCARBOXYLATE TRANSPORTERS FOR CANCER IMMUNOTHERAPY” (NIROGY THERAPEUTICS, INC., priority 2021, published 2022)

How the values were obtained:
[1] = tested on: monocarboxylate transporters; test: Lactate detection assay in cancer cell lines (intracellular lactate, Lactate-glo); type: cell-based; conditions: 24 hours incubation
Method: Cells are maintained in their appropriate growth medium (RPMI medium with 2 g/L glucose, 2 mM L-glutamine supplemented with 10% FBS and P/S (growth medium). 15,000-25,000 cells were seeded into white 96-well plates in growth medium and incubated for 24 hours at 37° C. and 5% CO2. A duplicate plate was also seeded for normalization by an MTS assay. Dry weight compound stocks were dissolved to a concentration of 10 mM in 100% DMSO. Compounds were further diluted in the assay medium (Lactate media: 10 mM lactate, 5% FBS, and 1× P/S; Glucose media: RPMI, 5% FBS, and 1× P/S). Growth media was changed 24 hours later to assay medium containing 10 μM compound or vehicle (DMSO) control and incubated for 24 hours. Conditioned media was collected and the cells were washed in 200 μL ice-cold PBS. […] After a 5 minute incubation, 12.5 μL Neutralization solution (1M Trizma) is incubated for 1 minute. Intracellular lactate measurements were performed using a Lactate-glo kit (Promega). Briefly, the lactate detection reagent is mixed immediately before use and 50 μL is pipetted into each well and incubated at room temperature for 1 hour. Lactate is oxidized by enzymatic reactions to generate light. The luminescence is recorded using a Spectramax M5e plate reader and the concentration of lactate is determined using a known concentration of spiked lactate in PBS using GraphPad Prism.

[2] = tested on: panel of solid and haemotological tumor cell lines (e.g., Hs578t, SiHa, MDA-MB-231); test: MTS cell proliferation assay (cytotoxicity); type: cell-based; conditions: 72-96 hours, 10 mM lactate medium or RPMI 1640 medium, cell line not stated
Method: The anti-proliferation effect of MCT inhibition was investigated across a panel of solid and haemotological tumor cell lines. Cells were routinely cultured in their appropriate growth medium. On day 1, between 10,000-25,000 cells/well (e.g., Hs578t: 15,000 cells/well, SiHa: 10,000 cells/well, and MDA-MB-231: 25,000 cells/well) were plated into 96-well plates. 100 μL. of phosphate buffered saline solution was added to the external wells to prevent media evaporation. Plates were incubated in growth medium overnight at 37° C. in the presence of 5% CO2. On day 2, dry weight compound stocks were dissolved to a concentration of 10 mM in 100% DMSO. Compounds were further diluted in the assay medium; 10 mM lactate medium (without glucose, pyruvate, and glutamine) or RPMI 1640 medium (without pyruvate and glutamine) to generate a final dose range of 1 nM to 10 μM. Growth medium in the 96-well plate was replaced with the assay medium (10 mM lactate medium or RPMI medium or appropriate medium), and compounds were added to each well in the plate at different concentrations via serial dilution or pre-prepared solutions in assay medium. Plates were then incubated at 37° C. in the presence of 5% CO2 for a further 72-96 hours. On day 2-5, assay media was changed to 100 uL of DMEM/F12 and 20 μL of CellTiter 96 AQ MTS reagent was added to each well and the plate was returned to the incubator for 1-2 hours. MTS is bioreduced by NADPH or NADH produced by dehydrogenase enzymes in metabolically active cells into a coloured formazan product that is soluble in tissue culture medium. The amount of coloured formazan product is directly proportional to the number of living cells in culture. The absorbance of the plates was read on a Spectramax M5e plate reader using […] measurement wavelength. Dose response curves were plotted and IC50 values were calculated using GraphPad Prism. The IC50 value is equivalent to the concentration of compound that causes 50% inhibition of growth calculated from the compound treated signal to the vehicle treated signal.
Cytotoxicity of selected compounds is listed in Table 1, where IC50: A=<1 uM; B=1-10 uM; C=>10 uM; and NT=Not Tested.

Structure (SMILES)	IC50 [1]	IC50 ([2]; Table 1 (Group 1))	IC50 ([2]; Table 2 (Group 2))
CN(Cc1ccccc1)c1cc2oc(=O)c(C(=O)O)cc2s1 [Compound 1.001, 2-(benzyl(methyl)amino)-5-oxo-5H-thieno[3,2-b]pyran-6-carboxylic acid]	< 1 µM	< 1 µM	–
CN(Cc1ccc(F)cc1)c1cc2oc(=O)c(C(=O)O)cc2s1 [Compound 1.002, 2-((4-fluorobenzyl)(methyl)amino)-5-oxo-5H-thieno[3,2-b]pyran-6-carboxylic acid]	< 1 µM	< 1 µM	–
COc1cccc(C(=O)N(C)c2cc3oc(=O)c(C(=O)O)cc3s2)c1 [Compound 1.009, 2-(3-methoxy-N-methylbenzamido)-5-oxo-5H-thieno[3,2-b]pyran-6-carboxylic acid]	< 1 µM	< 1 µM	–
COc1ccccc1C(=O)N(C)c1cc2oc(=O)c(C(=O)O)cc2s1 [Compound 1.017, 2-[(2-Methoxy-benzoyl)-methyl-amino]-5-oxo-5H-thieno[3,2-b]pyran-6-carboxylic acid]	< 1 µM	< 1 µM	–
COc1cc(F)ccc1C(=O)N(C)c1cc2oc(=O)c(C(=O)O)cc2s1 [Compound 1.094, 2-(4-fluoro-2-methoxy-N-methylbenzamido)-5-oxo-5H-thieno[3,2-b]pyran-6-carboxylic acid]	< 1 µM	< 1 µM	–
CN(C(=O)NC1CCCC1)c1cc2oc(=O)c(C(=O)O)cc2s1 [Compound 2.027, 2-(3-cyclopentyl-1-methylureido)-5-oxo-5H-thieno[3,2-b]pyran-6-carboxylic acid]	–	–	< 1 µM
CN(C(=O)c1ccc(-c2ccccc2)cc1)c1cc2oc(=O)c(C(=O)O)cc2s1 [Compound 2.028, 2-(N-methyl-[1,1′-biphenyl]-4-carboxamido)-5-oxo-5H-thieno[3,2-b]pyran-6-carboxylic acid]	–	–	< 1 µM
CN(C(=O)c1ccc2cc(F)ccc2c1)c1cc2oc(=O)c(C(=O)O)cc2s1 [Compound 2.029, 2-(6-fluoro-N-methyl-2-naphthamido)-5-oxo-5H-thieno[3,2-b]pyran-6-carboxylic acid]	–	–	< 1 µM
CN(C(=O)c1cccc(-c2ccccc2)c1)c1cc2oc(=O)c(C(=O)O)cc2s1 [Compound 2.030, 2-(N-methyl-[1,1′-biphenyl]-3-carboxamido)-5-oxo-5H-thieno[3,2-b]pyran-6-carboxylic acid]	–	–	< 1 µM
CN(C(=O)c1cccc(-c2ccc(F)cc2)c1)c1cc2oc(=O)c(C(=O)O)cc2s1 [Compound 2.031, 2-(4′-fluoro-N-methyl-[1,1′-biphenyl]-3-carboxamido)-5-oxo-5H-thieno[3,2-b]pyran-6-carboxylic acid]	–	–	< 1 µM
CN(C(=O)c1ccccc1-c1ccc(F)cc1)c1cc2oc(=O)c(C(=O)O)cc2s1 [Compound 2.032, 2-(4′-fluoro-N-methyl-[1,1′-biphenyl]-2-carboxamido)-5-oxo-5H-thieno[3,2-b]pyran-6-carboxylic acid]	–	–	< 1 µM
Cc1ccc(NC(=O)N(C)c2cc3oc(=O)c(C(=O)O)cc3s2)cc1 [Compound 2.033, 2-(1-methyl-3-(p-tolyl)ureido)-5-oxo-5H-thieno[3,2-b]pyran-6-carboxylic acid]	–	–	< 1 µM
CN(C(=O)Nc1cccc(Cl)c1)c1cc2oc(=O)c(C(=O)O)cc2s1 [Compound 2.034, 2-(3-(3-chlorophenyl)-1-methylureido)-5-oxo-5H-thieno[3,2-b]pyran-6-carboxylic acid]	–	–	< 1 µM
Cc1ccccc1NC(=O)N(C)c1cc2oc(=O)c(C(=O)O)cc2s1 [Compound 2.035, 2-(1-methyl-3-(o-tolyl)ureido)-5-oxo-5H-thieno[3,2-b]pyran-6-carboxylic acid]	–	–	< 1 µM
Cc1cccc(NC(=O)N(C)c2cc3oc(=O)c(C(=O)O)cc3s2)c1 [Compound 2.036, 2-(1-methyl-3-(m-tolyl)ureido)-5-oxo-5H-thieno[3,2-b]pyran-6-carboxylic acid]	–	–	< 1 µM
CN(C(=O)Nc1ccc(F)cc1F)c1cc2oc(=O)c(C(=O)O)cc2s1 [Compound 2.037, 2-(3-(2,4-difluorophenyl)-1-methylureido)-5-oxo-5H-thieno[3,2-b]pyran-6-carboxylic acid]	–	–	< 1 µM
CN(C(=O)Nc1cccc2c1CCCC2)c1cc2oc(=O)c(C(=O)O)cc2s1 [Compound 2.038, 2-(1-methyl-3-(5,6,7,8-tetrahydronaphthalen-1-yl)ureido)-5-oxo-5H-thieno[3,2-b]pyran-6-carboxylic acid]	–	–	< 1 µM
CN(C(=O)Nc1ccc(F)c(F)c1)c1cc2oc(=O)c(C(=O)O)cc2s1 [Compound 2.040, 2-(3-(3,4-difluorophenyl)-1-methylureido)-5-oxo-5H-thieno[3,2-b]pyran-6-carboxylic acid]	–	–	< 1 µM
CN(C(=O)Nc1ccc(Oc2ccccc2Cl)cc1)c1cc2oc(=O)c(C(=O)O)cc2s1 [Compound 2.041, 2-(3-(4-(2-chlorophenoxy)phenyl)-1-methylureido)-5-oxo-5H-thieno[3,2-b]pyran-6-carboxylic acid]	–	–	< 1 µM
CN(C(=O)Nc1cc(C(F)(F)F)cc(C(F)(F)F)c1)c1cc2oc(=O)c(C(=O)O)cc2s1 [Compound 2.042, 2-(3-(3,5-bis(trifluoromethyl)phenyl)-1-methylureido)-5-oxo-5H-thieno[3,2-b]pyran-6-carboxylic acid]	–	–	< 1 µM
CN(C(=O)NC1CCOCC1)c1cc2oc(=O)c(C(=O)O)cc2s1 [Compound 2.043, 2-(1-methyl-3-(tetrahydro-2H-pyran-4-yl)ureido)-5-oxo-5H-thieno[3,2-b]pyran-6-carboxylic acid]	–	–	< 1 µM
CN(C(=O)N1CCOCC1)c1cc2oc(=O)c(C(=O)O)cc2s1 [Compound 2.044, 2-(N-methylmorpholine-4-carboxamido)-5-oxo-5H-thieno[3,2-b]pyran-6-carboxylic acid]	–	–	< 1 µM
CN(C(=O)N1CCCCC1)c1cc2oc(=O)c(C(=O)O)cc2s1 [Compound 2.045, 2-(N-methylpiperidine-1-carboxamido)-5-oxo-5H-thieno[3,2-b]pyran-6-carboxylic acid]	–	–	< 1 µM
CN(C(=O)N1CCCC1)c1cc2oc(=O)c(C(=O)O)cc2s1 [Compound 2.046, 2-(N-methylpyrrolidine-1-carboxamido)-5-oxo-5H-thieno[3,2-b]pyran-6-carboxylic acid]	–	–	< 1 µM
COc1cnccc1NC(=O)N(C)c1cc2oc(=O)c(C(=O)O)cc2s1 [Compound 2.047, 2-(3-(3-methoxypyridin-4-yl)-1-methylureido)-5-oxo-5H-thieno[3,2-b]pyran-6-carboxylic acid]	–	–	< 1 µM
CN(C(=O)Nc1nc(C(C)(C)C)cs1)c1cc2oc(=O)c(C(=O)O)cc2s1 [Compound 2.048, 2-(3-(4-(tert-butyl)thiazol-2-yl)-1-methylureido)-5-oxo-5H-thieno[3,2-b]pyran-6-carboxylic acid]	–	–	< 1 µM
CC(C)c1csc(NC(=O)N(C)c2cc3oc(=O)c(C(=O)O)cc3s2)n1 [Compound 2.049, 2-(3-(4-isopropylthiazol-2-yl)-1-methylureido)-5-oxo-5H-thieno[3,2-b]pyran-6-carboxylic acid]	–	–	< 1 µM
CN(Cc1cccc(-c2ccc(F)cc2)c1)c1cc2oc(=O)c(C(=O)O)cc2s1 [Compound 2.050, 2-(((4′-fluoro-[1,1′-biphenyl]-3-yl)methyl)(methyl)amino)-5-oxo-5H-thieno[3,2-b]pyran-6-carboxylic acid]	–	–	< 1 µM
CN(C(=O)Nc1cc(C(C)(C)C)on1)c1cc2oc(=O)c(C(=O)O)cc2s1 [Compound 2.055, 2-(3-(5-(tert-butyl)isoxazol-3-yl)-1-methylureido)-5-oxo-5H-thieno[3,2-b]pyran-6-carboxylic acid]	–	–	< 1 µM
